Results from US9400274B2, “Cancer phospholipidome” (Katholieke Universiteit Leuven, priority 2010, dated 2016).
Entries after “also recorded” stand apart in the source; their conditions may differ.

How the values were obtained:
[1] = test system: human renal cell carcinoma cell line RCC4; assay: Phospholipid profiling (tandem MS) of soraphen-treated RCC4 cells; type: cell-based; settings: 100 nm soraphen vs vehicle, 72 h, PC, PE, PI, PS classes
Protocol: Renal cancer cell lines RCC4 VHL (Von Hippel Lindau) positive and negative were cultured in advanced DMEM supplemented with 10% fetal bovine serum, 1% PSG and 0.5 mg/ml G418. Cells were grown at 37° C. in a humidified 5% CO2 incubator. The day after seeding, cells were treated with 100 nm soraphen or vehicle (control) for 72 h.
To assess the impact of fatty acyl chain elongation and of chemical inhibitors of this process, the human renal cell carcinoma cell line RCC4 was treated with soraphen.

[2] = test system: Human breast adenocarcinoma cells MDA-MB-231; assay: Phospholipid profiling (tandem MS) of soraphen-treated MDA-MB-231 cells; type: cell-based; settings: 100 nm soraphen vs vehicle, 72 h, four phospholipid classes
Protocol: Human breast adenocarcinoma cells MDA-MB-231 (obtained from the American Type Culture Collection) were cultured in DMEM-F12 supplemented with 10% fetal bovine serum and were grown at 37° C. in a humidified 5% CO2 incubator. The day after seeding, cells were treated with 100 nm soraphen or vehicle (control) for 72 h.
Lipids were extracted from both soraphen and vehicle treated cells and were analyzed by tandem mass spectrometry.

What does the source list for `CO[C@H]1CCCC[C@@H](c2ccccc2)OC(=O)[C@@H](C)[C@@]2(O)O[C@H]([C@@H](C)[C@H](O)[C@H]2OC)[C@@H](C)/C=C/[C@H]1OC` [soraphen]?
changes in phospholipid acyl chain composition (soraphen/control ratio) [1]: a marked shift from longer to shorter lipid species; also recorded: a marked inhibition of acyl chain elongation; changes in phospholipid acyl chain composition (soraphen/control ratio) [2]: a marked shift from longer to shorter lipid species; also recorded: a clear decrease in the longer lipid species
